Earlier results, collected in patent US20030039708A1, “NON-MA HUANG HERB WEIGHT LOSS PRODUCT” (priority 2001, published 2003).
Like-named read-outs stand apart in the source and are kept apart here.

Columns and labels:
[1] = in vivo
[2] = obese patients
[3] = placebo group gained weight over the length of the trial
[4] = not given; remark: listed apart in the source
[5] = placed in water
[6] = double-blind study
[7] = in combination with diet, versus diet alone

O=C(O[C@@H]1Cc2c(O)cc(O)cc2O[C@@H]1c1cc(O)c(O)c(O)c1)c1cc(O)c(O)c(O)c1 [Epigallocatechin gallate]
blood cholesterol [1]: significantly reduced
blood triglyceride [1]: significantly reduced
body weight [1]: significantly reduced
food intake [1]: significantly reduced
growth of the prostate, uterus, and ovary [1]: significantly reduced

[Cr] [chromium]
lean body mass [2]: increased
abdominal fat gained (placebo group gained 6.5%): 1%
reduction of insulin resistance (statistically significant, maintained at the end of eight months): 40%

Glucomannan
body weight change [3]: weight loss
tolerability ([4]; long term treatment of severe obesity): well tolerated
weight loss in relation to the fatty mass alone ([4]; severely obese patients, diet plus glucomannan): more significant weight loss
swelling in water [5]: up to 17 times its original volume
HDL cholesterol [6]: no significant increase
LDL cholesterol [6]: significant reductions
systolic blood pressure [6]: reduced
total cholesterol [6]: significant reductions
triglycerides [6]: significant reductions
blood glucose [7]: more effective than diet alone
body weight [7]: more effective than diet alone
hunger and satiety sensation [7]: more effective than diet alone
total serum cholesterol [7]: more effective than diet alone
